Measurements taken from patent US4481141A, “Nondiffusible yellow metallized azo dye-releasing compounds” (Eastman Kodak Company, priority 1983, dated 1984).
“Also recorded” adds a separate entry of the source.

Key:
Assay type in all cases: physicochemical
[1] = Dye solution spectra of Ni-dye complexes (Table I); settings: 3:1 dioxane:water, pH 7, excess nickel ion
From the text: (§1) The receiver was removed from the dye solution, washed in distilled water, placed in a pH 7.0 buffer solution and dried. Transmission spectra obtained on each sample of the mordanted dyes were normalized by computer to a density of 1.0. The characteristic wavelength of the dye, λ1/2 in nm, is the mean of the wavelength limits of the absorption envelope at half the maximum density. The HBW ("half band width") in nm is the range or distance between those limits. The dye solution spectrum in 3:1 dioxane:water at pH 7 in the presence of excess nickel ion is also given.

[2] = Light stability of mordanted dyes (HID fade, Table I); settings: unmetallized dye; nickel layer/poly(4-vinylpyridine) receiver; 10 days HID, 50,000 lux, 38° C., pH 7
Protocol: (§2) A receiving element was prepared comprising a poly(ethylene terephthalate) film support having thereon a nickel sulfate hexahydrate (0.58 g/m^2)/gelatin (1.08 g/m^2) metal complexing layer, and a poly(4-vinylpyridine)/gelatin mordant layer (each at 2.15 g/m^2), which forms metal complexes with the unmetallized dyes. […]
The above receiving elements at pH 7 were then subjected to 10 days irradiation by a high intensity daylight (HID), 6000 W Xenon arc lamp, the sample receiving 50,000 lux through a Wratten 2B (ultraviolet) filter at approximately 38° C. and low humidity. The percent fade represents the loss in density at λmax after irradiation.

[3] = Transmission spectra of mordanted dyes on receiving element (Table I); settings: unmetallized dye; nickel sulfate layer/poly(4-vinylpyridine) mordant receiver; pH 7.0
Protocol: as §2, §1

[4] = Dye diffusion, solution test; settings: 0.0025M dye, pH 13.4
From the text: (§3) The released dyes in Table I were also subjected to the conditions of two different dye diffusion tests. One, the "solution test" involved dissolving the dye in a viscous composition and transferring it through a receiving element which contains an opaque and reflecting layer in addition to the mordant layer. The other, a "gel pad test" involved imbibing the dye from solution into a thick gelatin layer, and then transferring it by direct lamination to the same receiving element which had been preswollen by soaking 5 minutes in a solution of 0.1 potassium hydroxide. The receiver for these tests had the following composition (coverages are parenthetically given in g/m^2):
(§4) A transparent poly(ethylene terephthalate) film support coated with
(§5) (1) a mordant layer of poly(styrene-co-N-vinylbenzyl-N-benzyl-N,N-dimethylammonium chloride-co-divinylbenzene) (2.28) and gelatin (2.28);
(§6) (2) an opaque and reflecting layer of carbon black (1.88) in gelatin (1.23) and titanium dioxide (16.1) in gelatin (2.63); and
(§7) (3) an overcoat layer of gelatin (4.3).
Approximately 0.075 mmol of the released dye was dissolved in 10 ml of 0.125N potassium hydroxide. After the dye was completely dissolved, 20 ml of a viscous composition was added; and the resulting solution, stirred for at least 20 minutes, was 0.0025M in dye at a pH of 13.4. The viscous composition was prepared from 46.2 g potassium hydroxide and 54 g carboxymethylcellulose dissolved in 1200 ml water. […] Measurement of the rate of dye diffusion was commenced at the point at which half of the laminate had passed through the rollers. The appearance of dye on the mordant was measured at λmax as diffuse reflection density vs. time. The reflection density was converted to transmission density by computer with the aid of a mathematical relation derived from a previous calibration. A plot of transmission density, which is proportional to concentration vs. time, was derived; and the value of t-1/2 of dye transfer, the time in seconds required to obtain one-half of the maximum transmission density, calculated.

[5] = Stability of dye:nickel complex under gel pad transfer conditions; settings: after gel pad diffusion test
Protocol: A donor element, containing a thick pad of deionized acid-processed gelatin (26 g/m^2) hardened with 2 percent bis(vinylsulfonylmethyl)ether, was imbibed with a solution of 0.1M in potassium hydroxide and 1.3×10^-3 M in dye. The pad was soaked to full penetration, surface wiped, and then laminated in direct contact to the above receiving element which had been presoaked for 5 minutes at 0.1M KOH. The t-1/2 of dye transfer was obtained as in the solution test. The diffusion times by the "gel pad test" are substantially longer than by the "solution test".
When the unmetallized dye ligand of Compound J of the '643 patent and the 1:1 complex thereof were subjected to the gel pad diffusion test as described in Example 1, the values obtained were 66 sec. and 146 sec., respectively.

[6] = Dye diffusion, gel pad test
From the text: as §3, §4, §5, §6, §7
A donor element, containing a thick pad of deionized acid-processed gelatin (26 g/m^2) hardened with 2 percent bis(vinylsulfonylmethyl)ether, was imbibed with a solution of 0.1M in potassium hydroxide and 1.3×10^-3 M in dye. […]

[7] = Comparison with prior art: absorption in dioxane/water with and without nickel ions
Protocol: In U.S. Pat. No. 4,148,643, Compound J in column 32 is the nickel complex of the following dye compound: [drawing 20] The nickel-dye complex is listed as having a λmax of 462 nm and a half-band width of 76 nm when adsorbed to a cationic polymeric mordant on a film strip. A 1:1 dioxane/water mixture at a pH of 7.0 of this nickel-dye complex was prepared. It absorbed at 444 nm in the presence of excess nickel ions and 402 nm in the absence of nickel ions.
In Table I, Compound C has the following structure: [drawing 21] The compound has a quinoline nitrogen chelating group instead of a hydroxyl chelating group as in Compound J of the '643 patent. A 1:1 dioxane/water mixture at a pH of 7.0 of the above Compound C was prepared. It absorbed at 452 nm in the presence of excess nickel ions and at 387 nm in the absence of nickel ions.

SMILES | Spectra of Ni-Dye Complexes, Dye Solution, HBW (half band width) [1] [nm] | Spectra of Ni-Dye Complexes, Dye Solution, λ1/2 [1] [nm] | % Fade (loss in density at λmax after irradiation) [2] [%] | Spectra of Ni-Dye Complexes, Mordant, HBW (half band width) [3] [nm] | Spectra of Ni-Dye Complexes, Mordant, λ1/2 [3] [nm] | Dye Diffusion t1/2, Soln. [4] [s] | spectrum of the dye on the receiver after transfer [5] | gel pad diffusion test value ([6]; gel pad diffusion test as in Example 1 (comparison with prior art)) [s] | nature/stability of dye:nickel complex from spectrum ([7]; 0.5 mol Ni^++, listed as Dye C) | absorption wavelength in the presence of excess nickel ions ([7]; 1:1 dioxane/water, pH 7.0, excess nickel ions) [nm] | absorption wavelength in the absence of nickel ions ([7]; 1:1 dioxane/water, pH 7.0, no nickel ions) [nm] | spectrum at reduced nickel ion concentration ([7]; nickel ion at one-half the molar concentration of the dye) | Dye Diffusion t1/2, Gel Pad ([6]; gel pad test, 0.1M KOH, 1.3×10^-3 M dye) [s]
CC(C)(C)C(O)=C(C#N)N=Nc1ccc(S(=O)(=O)Nc2cccc(S(N)(=O)=O)c2)c2cccnc12 [H] | 70 | 450 | 3.6 | 79 | 455 | 40 | – | – | – | – | – | – | –
CC(O)=C(C#N)N=Nc1cc(S(N)(=O)=O)ccc1O [reference compound] | – | – | – | – | – | – | showed the presence of the unmetallized dye only | 66 | – | – | – | – | –
CC(O)=C(C#N)N=Nc1cccc2cccnc12 [A] | 68 | 431 | – | – | – | – | – | – | – | – | – | – | –
N#CC(N=Nc1ccc(S(N)(=O)=O)c2cccnc12)=C(O)c1ccccc1 [G] | 70 | 460 | 1.0 | 75 | 470 | 27 | – | – | – | – | – | – | –
CC(O)=C(C#N)N=Nc1ccc(S(=O)(=O)Nc2cccc(S(N)(=O)=O)c2)c2cccnc12 [Compound C] | 70 | 448 | 1.0 | 74 | 457 | 37 | – | – | stable 2:1 complex of dye to metal; also recorded: much more stable 2:1 dye:nickel complex than compound J of the '643 patent | 452 | 387 | no change in the spectrum | –
CC(O)=C(C#N)N=Nc1ccc(S(=O)(=O)Nc2cccc(C(=O)O)c2)c2cccnc12 [I] | 68 | 451 | 7.2 | 77 | 455 | 34 | – | – | – | – | – | – | 127
N#CC(N=Nc1cccc2cccnc12)=C(O)c1ccccc1 [F] | 70 | 446 | 2.0 | 75 | 458 | – | – | – | – | – | – | – | –
CC(C)(C)C(O)=C(C#N)N=Nc1ccc(S(N)(=O)=O)c2cccnc12 [E] | 72 | 445 | 2.0 | 69 | 456 | 29 | – | – | – | – | – | – | –
CC(O)=C(C#N)N=Nc1ccc(S(=O)(=O)Nc2cccc(O)c2)c2cccnc12 [D] | 70 | 451 | 8.0 | 73 | 459 | 39 | – | – | – | – | – | – | –
Cc1nn(-c2ccccc2)c(O)c1N=Nc1cccc2cccnc12 [N] | 102 | 444 | 3.0 | 116 | 447 | – | – | – | – | – | – | – | –
O=c1c(N=Nc2cccc3cccnc23)c(O)n(-c2ccccc2)n1-c1ccccc1 [L] | 72 | 435 | 1.0 | 77 | 439 | – | – | – | – | – | – | – | –
O=c1oc2ccccc2c(O)c1N=Nc1cccc2cccnc12 [O] | 98 | 429 | 0.0 | 85 | 452 | – | – | – | – | – | – | – | –
NS(=O)(=O)c1ccc(N=Nc2c(O)n(-c3ccccc3)n(-c3ccccc3)c2=O)c2ncccc12 [M] | 72 | 450 | 1.0 | 77 | 459 | – | – | – | – | – | – | – | –
CC(O)=C(C#N)N=Nc1ccc(S(N)(=O)=O)c2cccnc12 [B] | 67 | 445 | 1.5 | 70 | 456 | 27 | – | – | – | – | – | – | –
